Test results taken from patent publication US20240252488A1 (KOREA RESEARCH INSTITUTE OF CHEMICAL TECHNOLOGY, priority 2020, published 2024).

Experiments:
[1] = biological target: T1, MLKL (Homo sapiens, UniProt Q8NB16); experiment: MLKL degradation assay in HepG2 cell line (western blot); type: cell-based; design: endogenous in cells; host or cells: HepG2 or HaCaT; settings: cell line not given; for Degradation assay (Degradation %) 1 μM: compound 1 μM; for Degradation assay (Degradation %) 10 μM: compound 10 μM
T1 sequence (Q8NB16 1-471): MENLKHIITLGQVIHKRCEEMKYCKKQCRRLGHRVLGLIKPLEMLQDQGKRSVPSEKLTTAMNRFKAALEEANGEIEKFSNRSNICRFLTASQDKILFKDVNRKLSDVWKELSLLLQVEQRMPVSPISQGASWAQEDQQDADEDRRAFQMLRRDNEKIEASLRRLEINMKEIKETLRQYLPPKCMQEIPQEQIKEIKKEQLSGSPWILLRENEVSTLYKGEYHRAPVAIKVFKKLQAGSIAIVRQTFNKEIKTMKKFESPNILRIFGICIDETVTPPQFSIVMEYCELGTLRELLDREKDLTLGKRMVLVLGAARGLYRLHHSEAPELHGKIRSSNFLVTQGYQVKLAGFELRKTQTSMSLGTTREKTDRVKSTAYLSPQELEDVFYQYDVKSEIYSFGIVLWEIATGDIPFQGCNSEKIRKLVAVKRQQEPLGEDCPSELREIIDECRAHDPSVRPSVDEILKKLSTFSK
Summary of the method: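 Degradation is judged from MLKL band intensity on immunoblots of HepG2 lysates taken after 20-24 hours of compound at final 1 or 10 μM.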

[2] = tested on: FADD−/− Jurkat cells; experiment: Necroptosis inhibition assay, TNF-α-induced necroptosis (CellTiter-Glo 2.0); type: cell-based, human; settings: TNF-α 15 ng/mL; for Necroptosis inhibition assay (Rescue %) 1 μM: compound 1 μM; for Necroptosis inhibition assay (Rescue %) 10 μM: compound 10 μM
Summary of the method: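 Tested at three fixed concentrations (0.1, 1, 10 μM final) with a 30-minute room-temperature preincubation ahead of 15 ng/mL TNF-α challenge lasting 20 to 24 hours. Inhibition rate and cytotoxicity derive from ATP luminescence.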

[3] = biological target: T1, MLKL; experiment: Measurement of binding affinity with MLKL receptor (competitive binding assay, Kd); design: made in house; host or cells: HEK 293 cell line (T7 phage in E. coli BL21-derived host is also described)
Summary of the method: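 Competitive displacement of MLKL, expressed in HEK 293 cells and DNA-tagged for qPCR, from immobilized ligand on biotin-blocked beads. Compounds were added from 111× DMSO stocks (final DMSO 0.9%). Kinase left in the eluates was quantified by qPCR to give Kd.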

Structure (SMILES) | Degradation assay (Degradation %) 1 μM [1] [%] | Degradation assay (Degradation %) 10 μM [1] [%] | Kd [3] [nM] | Necroptosis inhibition assay (Rescue %) 1 μM [2] [%] | Necroptosis inhibition assay (Rescue %) 10 μM [2] [%] | Necroptosis inhibition assay (Rescue %) 1 μM ([2]; FADD−/− Jurkat cells) [%] | Necroptosis inhibition assay (Rescue %) 10 μM ([2]; FADD−/− Jurkat cells) [%] | Necroptosis inhibition assay (Rescue %) 1.1 μM ([2]; compound 1.1 µM)
Nc1ncc(-c2cnn(C3CCN(CCOCCOCCOCCNc4ccc5c(c4)C(=O)N(C4CCC(=O)NC4=O)C5=O)CC3)c2)nc1C(=O)O[C@@H](C(=O)Nc1ccc(F)cc1)c1ccccc1 (stereo partly drawn) [TDH-154, (R)-2-((4-fluorophenyl)amino)-2-oxo-1-phenylethyl 3-amino-6-(1-(1-(2-(2-(2-(2-((2-(2,6-dioxopiperidin-3-yl)-1,3-dioxoisoindolin-5-yl)amino)ethoxy)ethoxy)ethoxy)ethyl)piperidin-4-yl)-1H-pyrazol-4-yl)pyrazine-2-carboxylate] | 25.56 | 28.19 | 3.8 | 37.01 | 23.23 | – | – | –
Nc1ncc(-c2cnn(C3CCN(CCC4CCN(C(=O)C5CCN(C6=CC(=O)N(C7CCC(=O)NC7=O)C6=O)CC5)CC4)CC3)c2)nc1C(=O)O[C@@H](C(=O)Nc1ccc(F)cc1)c1ccccc1 (stereo partly drawn) [TDH-524, (R)-2-((4-fluorophenyl)amino)-2-oxo-1-phenylethyl 3-amino-6-(1-(1-(2-(1-(1-(1-(2,6-dioxopiperidin-3-yl)-2,5-dioxo-2,5-dihydro-1H-pyrrol-3-yl)piperidine-4-carbonyl)piperidin-4-yl)ethyl)piperidin-4-yl)-1H-pyrazol-4-yl)pyrazine-2-carboxylate] | 89.35 | 83.06 | 0.99 | – | – | 48.61 | 15.69 | –
Nc1ncc(-c2cnn(C3CCN(C(=O)c4cn(C5CCN(c6cccc7c6C(=O)N(C6CCC(=O)NC6=O)C7=O)CC5)cn4)CC3)c2)nc1C(=O)O[C@@H](C(=O)Nc1ccc(F)cc1)c1ccccc1 (stereo partly drawn) [TDH-364, (R)-2-((4-fluorophenyl)amino)-2-oxo-1-phenylethyl 3-amino-6-(1-(1-(1-(1-(2-(2,6-dioxopiperidin-3-yl)-1,3-dioxoisoindolin-4-yl)piperidin-4-yl)-1H-imidazole-4-carbonyl)piperidin-4-yl)-1H-pyrazol-4-yl)pyrazine-2-carboxylate] | 72.07 | 65.89 | 5.3 | 22.41 | 17.66 | – | – | –
Nc1ncc(-c2cnn(C3CCN(C[C@H]4CC[C@H](CNC(=O)Cc5cccc(NC6=CC(=O)N(C7CCC(=O)NC7=O)C6=O)c5)CC4)CC3)c2)nc1C(=O)O[C@@H](C(=O)Nc1ccc(F)cc1)c1ccccc1 (stereo partly drawn) [TDH-498, (R)-2-((4-fluorophenyl)amino)-2-oxo-1-phenylethyl 3-amino-6-(1-(1-(((1r,4r)-4-((2-(3-((1-(2,6-dioxopiperidin-3-yl)-2,5-dioxo-2,5-dihydro-1H-pyrrol-3-yl)amino)phenyl)acetamido)methyl)cyclohexyl)methyl)piperidin-4-yl)-1H-pyrazol-4-yl)pyrazine-2-carboxylate] | 86.68 | 89.27 | 3.7 | – | – | 23.9 | 16.6 | –
Nc1ncc(-c2cnn(C3CCN(CCCCCCNC(=O)COc4ccc5c(c4)C(=O)N(C4CCC(=O)NC4=O)C5=O)CC3)c2)nc1C(=O)O[C@@H](C(=O)Nc1ccc(F)cc1)c1ccccc1 (stereo partly drawn) [TDH-165, (R)-2-((4-fluorophenyl)amino)-2-oxo-1-phenylethyl 3-amino-6-(1-(1-(6-(2-((2-(2,6-dioxopiperidin-3-yl)-1,3-dioxoisoindolin-5-yl)oxy)acetamido)hexyl)piperidin-4-yl)-1H-pyrazol-4-yl)pyrazine-2-carboxylate] | 62.49 | 61.44 | 0.9 | 52.37 | 4.66 | – | – | –
Nc1ncc(-c2cnn(C3CCN(CCOC4CCN(C(=O)COc5cccc6c5C(=O)N(C5CCC(=O)NC5=O)C6=O)CC4)CC3)c2)nc1C(=O)O[C@@H](C(=O)Nc1ccc(F)cc1)c1ccccc1 (stereo partly drawn) [TDH-331, (R)-2-((4-fluorophenyl)amino)-2-oxo-1-phenylethyl 3-amino-6-(1-(1-(2-((1-(2-((2-(2,6-dioxopiperidin-3-yl)-1,3-dioxoisoindolin-4-yl)oxy)acetyl)piperidin-4-yl)oxy)ethyl)piperidin-4-yl)-1H-pyrazol-4-yl)pyrazine-2-carboxylate] | 54.86 | 60.37 | 2.6 | – | 47.13 | – | – | 49.38 (1.1 µM) %
Nc1ncc(-c2cnn(C3CCN(CC4CCN(c5ccc6nnn(C7CCC(=O)NC7=O)c(=O)c6c5)CC4)CC3)c2)nc1C(=O)O[C@@H](C(=O)Nc1ccc(F)cc1)c1ccccc1 (stereo partly drawn) [TDH-172, (R)-2-((4-fluorophenyl)amino)-2-oxo-1-phenylethyl 3-amino-6-(1-(1-((1-(3-(2,6-dioxopiperidin-3-yl)-4-oxo-3,4-dihydrobenzo[d][1,2,3]triazin-6-yl)piperidin-4-yl)methyl)piperidin-4-yl)-1H-pyrazol-4-yl)pyrazine-2-carboxylate] | 59.24 | 57.1 | 26 | 85.53 | 74.34 | – | – | –
Nc1ncc(-c2cnn(C3CCN(CCC4CCN(CC5CCN(c6cc7c(cc6F)C(=O)N(C6CCC(=O)NC6=O)C7=O)CC5)CC4)CC3)c2)nc1C(=O)O[C@@H](C(=O)Nc1ccc(F)cc1)c1ccccc1 (stereo partly drawn) [TDH-514, (R)-2-((4-fluorophenyl)amino)-2-oxo-1-phenylethyl 3-amino-6-(1-(1-(2-(1-((1-(2-(2,6-dioxopiperidin-3-yl)-6-fluoro-1,3-dioxoisoindolin-5-yl)piperidin-4-yl)methyl)piperidin-4-yl)ethyl)piperidin-4-yl)-1H-pyrazol-4-yl)pyrazine-2-carboxylate] | 55.53 | 84.44 | 0.9 | – | – | 24.14 | −67.06 | –

More lines, in order of falling Kd [3], values ahead:

Degradation assay (Degradation %) 1 μM [1] [%] | Degradation assay (Degradation %) 10 μM [1] [%] | Kd [3] [nM] | Structure (SMILES) | Necroptosis inhibition assay (Rescue %) 1 μM [2] [%] | Necroptosis inhibition assay (Rescue %) 10 μM [2] [%] | Necroptosis inhibition assay (Rescue %) 1 μM ([2]; FADD−/− Jurkat cells) [%] | Necroptosis inhibition assay (Rescue %) 10 μM ([2]; FADD−/− Jurkat cells) [%] | Necroptosis inhibition assay (Rescue %) 1.1 μM ([2]; compound 1.1 µM)
56.81 | 38.77 | 5.2 | Nc1ncc(-c2cnn(C3CCN(C(=O)C4CCN(C(=O)C5CCN(c6ccc7c(c6)C(=O)N(C6CCC(=O)NC6=O)C7=O)CC5)CC4)CC3)c2)nc1C(=O)OC(C(=O)Nc1ccc(F)cc1)c1ccccc1 (stereo not shown) [TDH-274, 2-((4-fluorophenyl)amino)-2-oxo-1-phenylethyl 3-amino-6-(1-(1-(1-(1-(2-(2,6-dioxopiperidin-3-yl)-1,3-dioxoisoindolin-5-yl)piperidine-4-carbonyl)piperidine-4-carbonyl)piperidin-4-yl)-1H-pyrazol-4-yl)pyrazine-2-carboxylate] | 77.01 | 57.62 | – | – | –
90.52 | 94.63 | 0.36 | COc1ccc(C(=O)N2CCC(CN3CCC(CCN4CCC(n5cc(-c6cnc(N)c(C(=O)O[C@@H](C(=O)Nc7ccc(F)cc7)c7ccccc7)n6)cn5)CC4)CC3)CC2)cc1N1CCC(=O)NC1=O [TDH-505, (R)-2-((4-fluorophenyl)amino)-2-oxo-1-phenylethyl 3-amino-6-(1-(1-(2-(1-((1-(3-(2,4-dioxotetrahydropyrimidin-1(2H)-yl)-4-methoxybenzoyl)piperidin-4-yl)methyl)piperidin-4-yl)ethyl)piperidin-4-yl)-1H-pyrazol-4-yl)pyrazine-2-carboxylate] | – | – | 102.00 | 76.87 | –
67.64 | 53.49 | 0.28 | Nc1ncc(-c2cnn(C3CCN(CCC4CCN(C(=O)C5CN(C6=CC(=O)N(C7CCC(=O)NC7=O)C6=O)C5)CC4)CC3)c2)nc1C(=O)O[C@@H](C(=O)Nc1ccc(F)cc1)c1ccccc1 (stereo partly drawn) [TDH-531, (R)-2-((4-fluorophenyl)amino)-2-oxo-1-phenylethyl 3-amino-6-(1-(1-(2-(1-(1-(1-(2,6-dioxopiperidin-3-yl)-2,5-dioxo-2,5-dihydro-1H-pyrrol-3-yl)azetidine-3-carbonyl)piperidin-4-yl)ethyl)piperidin-4-yl)-1H-pyrazol-4-yl)pyrazine-2-carboxylate] | – | – | 16.12 | 15.34 | –
